Reference: the NIST ThermoML archive (doi:10.1021/je050029o)
Numbers after ± are expanded uncertainties.

Conditions: 298.15 K; 101.33 kPa; Liquid; Pycnometric method

In order of falling mass density:
1. CO [methanol]  786.8 ± 0.7 kg/m3
2. CC1CCCCC1 [methylcyclohexane]  765.2 ± 0.7 kg/m3
3. COC(C)(C)C [2-methoxy-2-methylpropane]  740.6 ± 1.7 kg/m3
4. CCCCCCC [heptane]  679.5 ± 0.6 kg/m3
